ChEMBL document CHEMBL1139229, “Design and synthesis of potent inhibitors of the malaria parasite dihydroorotate dehydrogenase” (J Med Chem, 2007)
Active and inactive are the calls of the source. The calls are words filed in the database; no cut-off is given here.

T1: Dihydroorotate dehydrogenase (Plasmodium falciparum) (UniProt Q54A96)
T1 sequence (whole entry): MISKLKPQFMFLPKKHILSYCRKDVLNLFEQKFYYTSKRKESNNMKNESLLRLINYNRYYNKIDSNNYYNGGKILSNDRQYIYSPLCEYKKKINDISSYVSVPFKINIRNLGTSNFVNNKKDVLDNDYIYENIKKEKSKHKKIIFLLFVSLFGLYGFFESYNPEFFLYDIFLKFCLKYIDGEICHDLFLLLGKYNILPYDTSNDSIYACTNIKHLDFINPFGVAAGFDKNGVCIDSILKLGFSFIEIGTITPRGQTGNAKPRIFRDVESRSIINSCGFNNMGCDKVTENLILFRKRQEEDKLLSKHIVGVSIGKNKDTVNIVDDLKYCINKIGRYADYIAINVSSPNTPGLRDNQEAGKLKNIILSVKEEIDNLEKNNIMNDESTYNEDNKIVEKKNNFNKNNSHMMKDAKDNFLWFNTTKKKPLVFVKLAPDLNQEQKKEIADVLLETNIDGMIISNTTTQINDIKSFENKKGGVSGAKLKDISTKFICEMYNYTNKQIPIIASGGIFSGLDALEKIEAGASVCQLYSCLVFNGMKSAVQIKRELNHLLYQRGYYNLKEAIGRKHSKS

T2: Dihydroorotate dehydrogenase (Plasmodium falciparum, UniProt Q54A96)
T2 sequence (Q54A96 whole entry): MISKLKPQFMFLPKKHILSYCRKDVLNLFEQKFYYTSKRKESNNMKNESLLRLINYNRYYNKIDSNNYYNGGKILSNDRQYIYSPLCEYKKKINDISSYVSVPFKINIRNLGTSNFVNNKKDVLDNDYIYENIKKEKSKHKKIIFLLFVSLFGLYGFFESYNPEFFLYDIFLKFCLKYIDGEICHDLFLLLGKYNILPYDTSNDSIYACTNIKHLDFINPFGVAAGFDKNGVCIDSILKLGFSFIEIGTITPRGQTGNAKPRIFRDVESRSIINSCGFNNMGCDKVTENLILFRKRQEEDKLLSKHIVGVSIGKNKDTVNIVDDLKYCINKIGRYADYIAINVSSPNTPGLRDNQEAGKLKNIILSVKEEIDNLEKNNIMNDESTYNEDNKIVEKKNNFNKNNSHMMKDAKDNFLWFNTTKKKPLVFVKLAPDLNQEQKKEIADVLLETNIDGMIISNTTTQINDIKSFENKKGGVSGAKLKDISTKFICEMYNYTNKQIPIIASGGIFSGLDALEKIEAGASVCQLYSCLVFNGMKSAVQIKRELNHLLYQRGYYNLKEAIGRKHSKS

T3: Dihydroorotate dehydrogenase (quinone), mitochondrial (Plasmodium falciparum (isolate 3D7)), Q08210 [F188A]
T3 sequence (whole entry): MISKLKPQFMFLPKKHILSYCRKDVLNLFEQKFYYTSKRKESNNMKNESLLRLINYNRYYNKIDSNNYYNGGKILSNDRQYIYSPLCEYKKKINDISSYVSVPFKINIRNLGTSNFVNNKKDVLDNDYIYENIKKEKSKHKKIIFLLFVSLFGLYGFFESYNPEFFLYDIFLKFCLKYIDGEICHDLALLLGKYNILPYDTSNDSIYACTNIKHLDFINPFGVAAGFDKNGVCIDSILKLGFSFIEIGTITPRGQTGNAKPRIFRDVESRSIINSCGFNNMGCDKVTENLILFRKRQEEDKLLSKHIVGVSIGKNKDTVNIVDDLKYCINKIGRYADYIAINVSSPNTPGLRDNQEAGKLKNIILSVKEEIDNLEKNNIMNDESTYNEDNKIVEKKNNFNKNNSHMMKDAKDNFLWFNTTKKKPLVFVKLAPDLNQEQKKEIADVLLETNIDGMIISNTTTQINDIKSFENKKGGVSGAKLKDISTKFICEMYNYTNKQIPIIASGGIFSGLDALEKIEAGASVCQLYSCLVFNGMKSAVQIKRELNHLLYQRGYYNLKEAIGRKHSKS


Legend:
[1] = molecular target: T1, Dihydroorotate dehydrogenase (Plasmodium falciparum); assay: Inhibition of recombinant Plasmodium falciparum DHODH at 10 uM
[2] = molecular target: T2, Dihydroorotate dehydrogenase; assay: (§1) Inhibition of recombinant Plasmodium falciparum DHODH
[3] = molecular target: Dihydroorotate dehydrogenase (quinone), mitochondrial (Homo sapiens, UniProt Q02127); assay: Inhibition of human recombinant DHODH
[4] = Selectivity for Plasmodium falciparum recombinant DHODH over human recombinant DHODH
Plasmodium falciparum = assay: Antimalarial activity against Plasmodium falciparum NF54 3D7 after 48 hrs; assay type: functional, organism-based; details: NF54/3D7, 48 h
[5] = system: T3, Dihydroorotate dehydrogenase (quinone), mitochondrial (Plasmodium falciparum (isolate 3D7)), Q08210 [F188A]; assay: Inhibition of Plasmodium falciparum DHODH F188A mutant
[6] = compound: O=C1CC(C(=O)O)NC(=O)N1; assay: as §1
[7] = compound: CCCCCCCCCCC1=C(C)C(=O)C(OC)=C(OC)C1=O; assay: as §1

Dihydroorotate dehydrogenase (quinone), mitochondrial, sequence (Q02127 whole entry): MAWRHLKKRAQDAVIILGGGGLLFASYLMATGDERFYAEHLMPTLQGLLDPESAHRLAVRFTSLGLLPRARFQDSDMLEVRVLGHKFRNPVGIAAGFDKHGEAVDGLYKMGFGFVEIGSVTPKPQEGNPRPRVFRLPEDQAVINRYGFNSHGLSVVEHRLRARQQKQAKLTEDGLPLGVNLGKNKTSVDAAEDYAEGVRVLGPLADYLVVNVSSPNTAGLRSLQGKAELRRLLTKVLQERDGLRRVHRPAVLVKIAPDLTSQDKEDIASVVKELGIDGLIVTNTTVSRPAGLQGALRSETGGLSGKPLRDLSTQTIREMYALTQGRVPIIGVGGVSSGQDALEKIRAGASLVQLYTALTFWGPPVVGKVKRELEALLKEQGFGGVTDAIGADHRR

Molecule | inhibition [1] | IC50 [2] | Ki [2] | IC50 [3] | Ki [3] | Selectivity ratio [4] | IC50 (Plasmodium falciparum) | Activity [5] | Km [6] | Km [7]
CCOC(=O)C(=CNc1ccc(C)cc1)C(=O)OCC | > 10% | 40 µM | 4.6 µM | 146 µM | 17.9 µM | 4 | – | – | – | –
CCOC(=O)C(=CNc1ccc2[nH]ncc2c1)C(=O)OCC | > 10% | 27.8 µM | 3.2 µM | 123 µM | 15.1 µM | 5 | – | – | – | –
CCOC(=O)C(=CNc1ccc(-c2ccccc2)cc1)C(=O)OCC | – | > 500 µM | – | > 500 µM | – | – | – | – | – | –
CCOC(=O)/C(C#N)=C\Nc1ccc(-c2ccccc2)cc1 | – | > 500 µM | – | > 500 µM | – | – | – | – | – | –
CCOC(=O)/C(C#N)=C\Nc1ccc2c(c1)c1ccccc1n2CC | > 10% | 0.44 µM | 0.05 µM | 491 µM | 60.4 µM | 1210 | 4 µM | – | – | –
Cc1c(C(=O)Nc2cc(Cl)cc(Cl)c2)cccc1[N+](=O)[O-] | – | 0.23 µM | 0.03 µM | – | 64.4 µM | 2280 | – | inactive | – | –
Cc1cc(Br)ccc1NC(=O)c1ccc2ccccc2c1 | – | 0.18 µM | 0.02 µM | – | 50.9 µM | 2310 | – | inactive | – | –
CCOC(=O)C(=CNc1ccccc1C)C(=O)OCC | > 10% | 346 µM | 39.7 µM | 292 µM | 35.9 µM | 1 | – | – | – | –
CCOC(=O)C(=CNc1ccc2[nH]cnc2c1)C(=O)OCC | > 10% | 349 µM | 40.2 µM | > 500 µM | – | – | – | – | – | –
CCOC(=O)/C(C#N)=C\Nc1cccc(-c2ccccc2)c1 | – | – | – | 220 µM | 0.027 µM | 10 | – | – | – | –
CCOC(=O)C(=CNc1ccc2sc3ccccc3c2c1)C(=O)OCC | > 10% | 0.16 µM | 0.02 µM | 29.6 µM | 3.63 µM | 182 | 1.8 µM | – | – | –
C/C(O)=C(\C#N)C(=O)Nc1ccc(C(F)(F)F)cc1 | – | – | – | – | – | – | – | inactive | – | –
CCOC(=O)C(=CNc1cccc(-c2ccccc2)c1)C(=O)OCC | – | 86.7 µM | 10 µM | 104 µM | 12.8 µM | 1 | – | – | – | –
Dihydroorotate dehydrogenase (Plasmodium falciparum), Q54A96 (protein) MISKLKPQFMFLPKKHILSYCRKDVLNLFEQKFYYTSKRKESNNMKNESLLRLINYNRYYNKIDSNNYYNGGKILSNDRQYIYSPLCEYKKKINDISSYVSVPFKINIRNLGTSNFVNNKKDVLDNDYIYENIKKEKSKHKKIIFLLFVSLFGLYGFFESYNPEFFLYDIFLKFCLKYIDGEICHDLFLLLGKYNILPYDTSNDSIYACTNIKHLDFINPFGVAAGFDKNGVCIDSILKLGFSFIEIGTITPRGQTGNAKPRIFRDVESRSIINSCGFNNMGCDKVTENLILFRKRQEEDKLLSKHIVGVSIGKNKDTVNIVDDLKYCINKIGRYADYIAINVSSPNTPGLRDNQEAGKLKNIILSVKEEIDNLEKNNIMNDESTYNEDNKIVEKKNNFNKNNSHMMKDAKDNFLWFNTTKKKPLVFVKLAPDLNQEQKKEIADVLLETNIDGMIISNTTTQINDIKSFENKKGGVSGAKLKDISTKFICEMYNYTNKQIPIIASGGIFSGLDALEKIEAGASVCQLYSCLVFNGMKSAVQIKRELNHLLYQRGYYNLKEAIGRKHSKS | – | – | – | – | – | – | – | – | 31.4 µM | 13.4 µM
